Source: PubChem BioAssay AID248 (DTP/NCI, 2004)
“And” between values parts separate entries of the source, which are not always exact repeats. Equal values may be shown once. Toxic doses and inconclusive results are not listed. No stated cut-off is given here; in the data, active means T/C of 150% or more; inactive means T/C below 125%.

System: L1210 leukemia ip in BDF1 mice, survival T/C
Test: NCI In Vivo Anticancer Drug Screen. Data for tumor model L1210 Leukemia (intraperitoneal) in B6D2F1 (BDF1) mice
Settings: endpoint: mean survival time, higher = longer survival
Procedure, shortened: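 Ratio derived from survival: compound-dosed mice over vehicle-dosed mice, all bearing a transplantable tumor.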

[1] = dose: 100.0 mg/kg/injection, schedule: Q01DX009 (ip), vehicle: saline with Tween-80
[2] = dose: 100.0 mg/kg/injection, schedule: Q04DX003 (ip), vehicle: saline with Tween-80
[3] = dose: 200.0 mg/kg/injection, schedule: Q01DX009 (ip), vehicle: saline with Tween-80
[4] = dose: 200.0 mg/kg/injection, schedule: Q04DX003 (ip), vehicle: saline with Tween-80
[5] = dose: 400.0 mg/kg/injection, schedule: Q04DX003 (ip), vehicle: saline with Tween-80
[6] = dose: 100.0 mg/kg/injection, schedule: Q04DX003 (ip), vehicle: carboxymethylcellulose (CMC)
[7] = dose: 200.0 mg/kg/injection, schedule: Q04DX003 (ip), vehicle: carboxymethylcellulose (CMC)
[8] = dose: 400.0 mg/kg/injection, schedule: Q04DX003 (ip), vehicle: carboxymethylcellulose (CMC)
[9] = dose: 100.0 mg/kg/injection, schedule: Q01DX001 (ip), vehicle: Klucel (hydroxypropylcellulose) (HPC)
[10] = dose: 200.0 mg/kg/injection, schedule: Q01DX001 (ip), vehicle: Klucel (hydroxypropylcellulose) (HPC)
[11] = dose: 400.0 mg/kg/injection, schedule: Q01DX001 (ip), vehicle: Klucel (hydroxypropylcellulose) (HPC)
[12] = dose: 100.0 mg/kg/injection, schedule: Q04DX003 (ip), vehicle: saline
[13] = dose: 200.0 mg/kg/injection, schedule: Q04DX003 (ip), vehicle: saline
[14] = dose: 400.0 mg/kg/injection, schedule: Q04DX003 (ip), vehicle: saline
[15] = dose: 100.0 mg/kg/injection, schedule: Q01DX001 (ip), vehicle: saline
[16] = dose: 200.0 mg/kg/injection, schedule: Q01DX001 (ip), vehicle: saline
[17] = dose: 100.0 mg/kg/injection, schedule: Q01DX001 (ip), vehicle: carboxymethylcellulose (CMC)
[18] = dose: 200.0 mg/kg/injection, schedule: Q01DX001 (ip), vehicle: carboxymethylcellulose (CMC)
[19] = dose: 400.0 mg/kg/injection, schedule: Q01DX001 (ip), vehicle: carboxymethylcellulose (CMC)
[20] = dose: 100.0 mg/kg/injection, schedule: Q04DX003 (ip), vehicle: Klucel (hydroxypropylcellulose) (HPC)
[21] = dose: 200.0 mg/kg/injection, schedule: Q04DX003 (ip), vehicle: Klucel (hydroxypropylcellulose) (HPC)
[22] = dose: 400.0 mg/kg/injection, schedule: Q04DX003 (ip), vehicle: Klucel (hydroxypropylcellulose) (HPC)
[23] = dose: 50.0 mg/kg/injection, schedule: Q01DX009 (ip), vehicle: Klucel (hydroxypropylcellulose) (HPC)
[24] = dose: 100.0 mg/kg/injection, schedule: Q01DX009 (ip), vehicle: Klucel (hydroxypropylcellulose) (HPC)
[25] = dose: 200.0 mg/kg/injection, schedule: Q01DX009 (ip), vehicle: Klucel (hydroxypropylcellulose) (HPC)
[26] = dose: 400.0 mg/kg/injection, schedule: Q01DX009 (ip), vehicle: Klucel (hydroxypropylcellulose) (HPC)

Measured: T/C

Cc1ccc(S(=O)(=O)N/N=C(/c2ccccc2)c2cccs2)cc1
inactive: [1] 102 % of control | [2] 90 % of control | [3] 91 % of control | [4] 96 % of control | [5] 96 % of control

CC(=O)Oc1cc(C)c2c(c1C)C1OC(=O)C(C)C1CC2 (centres undefined)
inactive: dose: 100.0 mg/kg/injection, schedule: Q01DX001 (ip), vehicle: other 98 % of control | dose: 200.0 mg/kg/injection, schedule: Q01DX001 (ip), vehicle: other 98 % of control | dose: 400.0 mg/kg/injection, schedule: Q01DX001 (ip), vehicle: other 97 % of control

COC(=O)c1ccccc1C(=O)c1ccccc1
inactive: [6] 101 % of control | [7] 102 % of control | [8] 96 % of control

O=C1CC(c2ccccc2)=CN1c1ccc2ccccc2c1
inactive: dose: 100.0 mg/kg/injection, schedule: Q04DX002 (ip), vehicle: Klucel (hydroxypropylcellulose) (HPC) 100 % of control | dose: 200.0 mg/kg/injection, schedule: Q04DX002 (ip), vehicle: Klucel (hydroxypropylcellulose) (HPC) 89 % of control | dose: 400.0 mg/kg/injection, schedule: Q04DX002 (ip), vehicle: Klucel (hydroxypropylcellulose) (HPC) 100 % of control

CCOC(=O)C(NC(=O)c1cc2sccc2[nH]1)C(=O)OCC
inactive: [9] 96 % of control | [10] 96 % of control | [11] 98 % of control

CC(C)CC(C)(O)C(N)=O (centres undefined)
inactive: [12] 102 % of control | [13] 102 % of control | [14] 91 % of control

COc1ccc(CNCCNCCNCc2ccc(OC)cc2)cc1
inactive: [1] 107 % of control | [12] 104 % of control | [3] 109 % of control | [13] 102 % of control | dose: 400.0 mg/kg/injection, schedule: Q01DX009 (ip), vehicle: saline with Tween-80 102 % of control | [14] 104 % of control

C1CCC(C2CCC(C3CCCCC3)CC2)CC1 (centres undefined)
inactive: [15] 90 % of control | [16] 90 % of control

CCCCCCCCC1SC1CCCCCCCC(=O)N1CCCN(C(=O)CCCCCCCC2SC2CCCCCCCC)C1 (centres undefined)
inactive: [2] 92 % of control | [4] 95 % of control | [5] 97 % of control

COc1cc(NC(=O)Nc2ccc(Cl)c(C(F)(F)F)c2)ccc1NC(C)=O
inactive: dose: 50.0 mg/kg/injection, schedule: Q01DX009 (ip), vehicle: carboxymethylcellulose (CMC) 96 % of control and 103 % of control | [17] 103 % of control and 105 % of control | dose: 100.0 mg/kg/injection, schedule: Q04DX002 (ip), vehicle: carboxymethylcellulose (CMC) 94 % of control | [6] 101 % of control and 105 % of control | [18] 100 % of control and 102 % of control | dose: 200.0 mg/kg/injection, schedule: Q04DX002 (ip), vehicle: carboxymethylcellulose (CMC) 96 % of control and 90 % of control | [7] 92 % of control and 99 % of control | [19] 97 % of control and 105 % of control | dose: 400.0 mg/kg/injection, schedule: Q04DX002 (ip), vehicle: carboxymethylcellulose (CMC) 96 % of control and 90 % of control | [8] 92 % of control

Cc1ccc2c(CCCC(=O)O)c(C)c(=O)oc2c1
inactive: [9] 98 % of control | [20] 103 % of control | [10] 98 % of control | [21] 96 % of control | [11] 100 % of control | [22] 88 % of control

CCOC(=O)c1cnc2c(ccc3ncccc32)c1NCCCN(CC)CC
inactive: [23] 112 % of control

CC(C)(Br)C(=O)C(C)(C)Br
inactive: dose: 75.0 mg/kg/injection, schedule: Q01DX001 (ip), vehicle: saline 93 % of control | [24] 103 % of control | dose: 150.0 mg/kg/injection, schedule: Q01DX001 (ip), vehicle: saline 96 % of control | [25] 100 % of control | dose: 300.0 mg/kg/injection, schedule: Q01DX001 (ip), vehicle: saline 92 % of control | [26] 91 % of control

CCCC(F)C(Br)C(=O)O (centres undefined)
inactive: dose: 100.0 mg/kg/injection, schedule: Q04DX002 (ip), vehicle: other 90 % of control | dose: 200.0 mg/kg/injection, schedule: Q04DX002 (ip), vehicle: other 90 % of control | dose: 400.0 mg/kg/injection, schedule: Q04DX002 (ip), vehicle: other 90 % of control

CCCCCCCCCCCCCC[n+]1cccc(C#N)c1
inactive: dose: 10.0 mg/kg/injection, schedule: Q01DX001 (ip), vehicle: saline 100 % of control | dose: 10.0 mg/kg/injection, schedule: Q04DX003 (ip), vehicle: saline 93 % of control | dose: 20.0 mg/kg/injection, schedule: Q01DX001 (ip), vehicle: saline 100 % of control | dose: 20.0 mg/kg/injection, schedule: Q04DX003 (ip), vehicle: saline 93 % of control | dose: 40.0 mg/kg/injection, schedule: Q01DX001 (ip), vehicle: saline 97 % of control | dose: 40.0 mg/kg/injection, schedule: Q04DX003 (ip), vehicle: saline 86 % of control

NNC(=O)C1CC12CC2 (centres undefined)
inactive: [15] 106 % of control and 109 % of control | [16] 103 % of control

C=CCOc1ccc2c(cc1=O)C(NC(C)=O)CCc1cc(OC)c(OC)c(OC)c1-2 (centres undefined)
inactive: [17] 114 % of control | [18] 120 % of control | [19] 117 % of control

CCCCCCCCCCCCC1C(=O)NC(=S)NC1=O
inactive: dose: 75.0 mg/kg/injection, schedule: Q01DX001 (ip), vehicle: other 97 % of control and 100 % of control | dose: 150.0 mg/kg/injection, schedule: Q01DX001 (ip), vehicle: other 101 % of control and 113 % of control | dose: 300.0 mg/kg/injection, schedule: Q01DX001 (ip), vehicle: other 103 % of control

O=[N+]([O-])/C(=C/C=C/c1ccccc1)c1ccccc1
inactive: [23] 96 % of control | [24] 89 % of control | [25] 86 % of control

CCOC(=O)NC(C)(C)CN(CCO)C(=O)OCC
inactive: [24] 100 % of control | [20] 105 % of control | [25] 97 % of control | [21] 102 % of control | [26] 97 % of control | [22] 93 % of control

O=C(O)C(C=C(Cl)Cl)N1CCCCC1 (centres undefined)
inactive: [12] 98 % of control | [13] 93 % of control | [14] 94 % of control

CCCCCCCCCCCCN1C(C)=CS/C1=C\C=C\c1scc(C)[n+]1CCCCCCCCCCCC
inactive: dose: 0.78 mg/kg/injection, schedule: Q01DX009 (ip), vehicle: saline with Tween-80 103 % of control | dose: 1.56 mg/kg/injection, schedule: Q01DX009 (ip), vehicle: saline with Tween-80 117 % of control | dose: 6.25 mg/kg/injection, schedule: Q01DX009 (ip), vehicle: saline with Tween-80 90 % of control

Cc1ccc(S(=O)(=O)N/N=C(\CSc2ccc([N+](=O)[O-])cc2)c2ccccc2)cc1
inactive: [2] 87 % of control | [4] 92 % of control | [5] 88 % of control
